The text below walks through data of the OligoGym collection.

HELM strings list units from the 5' end as sugar, base in round brackets, then linkage (d deoxyribose, r ribose, m 2'-O-methyl, p phosphodiester). Strings are as the collection lists them, not checked against the first reports. ss, as = sense and antisense strand; [fl2r] = 2'-fluoro
Note: test system not given here.

The conditions of this data set: siRNA.
As to “RNA1{r(A)p.r(G)p.r(C)p.r(C)p.r(U)p.r(C)p.[fl2r](C)p.r(A)p.r(A)p.r(A)p.r(C)p.r(U)p.r(C)p.r(C)p.[fl2r](U)p.r(A)p.r(G)p.r(C)p.r(U)p.r(T)p.r(T)}|RNA2{r(A)p.r(G)p.r(C)p.r(U)p.r(A)p.r(G)p.r(G)p.r(A)p.r(G)p.r(U)p.r(U)p.r(U)p.r(G)p.r(G)p.r(A)p.r(G)p.r(G)p.r(C)p.r(U)p.r(T)p.r(T)}$$$RNA1{StrandType:ss}|RNA2{StrandType:as}$”, the target mRNA knockdown came out at 32%. “RNA1{r(A)p.r(G)p.r(A)p.r(A)p.r(A)p.r(A)p.r(G)p.r(C)p.r(A)p.r(G)p.r(C)p.r(G)p.r(A)p.m(U)p.r(A)p.r(C)p.r(G)p.r(C)p.r(U)p.r(T)p.r(T)}|RNA2{r(A)p.r(G)p.r(C)p.r(G)p.r(U)p.r(A)p.r(U)p.r(C)p.r(G)p.r(C)p.r(U)p.r(G)p.r(C)p.r(U)p.r(U)p.r(U)p.r(U)p.r(C)p.r(U)p.r(T)p.r(T)}$$$RNA1{StrandType:ss}|RNA2{StrandType:as}$” yielded a target mRNA knockdown of 69%.

For “RNA1{r(A)p.r(A)p.r(G)p.r(G)p.m(C)p.r(A)p.r(U)p.r(G)p.r(C)p.r(U)p.r(U)p.r(C)p.r(G)p.r(G)p.r(A)p.r(A)p.r(A)p.r(C)p.r(U)p.r(T)p.r(T)}|RNA2{r(A)p.r(G)p.r(U)p.r(U)p.r(U)p.r(C)p.r(C)p.r(G)p.r(A)p.r(A)p.r(G)p.m(C)p.r(A)p.r(U)p.r(G)p.r(C)p.r(C)p.r(U)p.r(U)p.r(T)p.r(T)}$$$RNA1{StrandType:ss}|RNA2{StrandType:as}$”, the target mRNA knockdown amounted to 95%.

Substance “RNA1{r(G)p.r(C)p.r(U)p.r(G)p.[fl2r](U)p.r(A)p.r(A)p.r(C)p.r(C)p.r(U)p.r(C)p.r(G)p.r(G)p.r(A)p.r(G)p.r(A)p.r(G)p.r(U)p.r(U)p.r(T)p.r(T)}|RNA2{r(A)p.r(A)p.r(C)p.r(U)p.r(C)p.r(U)p.r(C)p.r(C)p.r(G)p.r(A)p.r(G)p.r(G)p.r(U)p.[fl2r](U)p.r(A)p.r(C)p.r(A)p.r(G)p.r(C)p.r(T)p.r(T)}$$$RNA1{StrandType:ss}|RNA2{StrandType:as}$” displayed a target mRNA knockdown of 69%. In the case of “RNA1{r(A)p.r(U)p.r(C)p.m(U)p.r(A)p.r(C)p.r(C)p.m(C)p.r(A)p.r(G)p.r(C)p.r(U)p.r(C)p.m(U)p.r(C)p.r(C)p.r(C)p.r(U)p.r(U)p.r(T)p.r(T)}|RNA2{r(A)p.r(A)p.r(G)p.r(G)p.r(G)p.r(A)p.r(G)p.r(A)p.r(G)p.r(C)p.m(U)p.r(G)p.r(G)p.r(G)p.m(U)p.r(A)p.r(G)p.r(A)p.r(U)p.r(T)p.r(T)}$$$RNA1{StrandType:ss}|RNA2{StrandType:as}$” it was 75%. The figure for “RNA1{r(U)p.m(U)p.r(A)p.r(A)p.r(G)p.r(G)p.r(A)p.r(G)p.r(A)p.r(A)p.r(G)p.r(C)p.r(U)p.r(G)p.r(A)p.r(C)p.r(G)p.r(G)p.r(C)p.r(T)p.r(T)}|RNA2{r(G)p.r(C)p.r(C)p.r(G)p.r(U)p.r(C)p.r(A)p.r(G)p.r(C)p.r(U)p.r(U)p.r(C)p.r(U)p.r(C)p.r(C)p.r(U)p.m(U)p.r(A)p.r(A)p.r(T)p.r(T)}$$$RNA1{StrandType:ss}|RNA2{StrandType:as}$” is 69%; for “RNA1{r(C)p.r(G)p.r(U)p.r(A)p.r(C)p.r(G)p.r(C)p.r(G)p.r(G)p.r(A)p.r(A)p.r(U)p.r(A)p.r(C)p.r(U)p.r(U)p.r(C)p.r(G)p.r(A)p.r(T)p.r(T)}|RNA2{m(U)p.m(C)p.m(G)p.m(A)p.m(A)p.m(G)p.r(U)p.r(A)p.r(U)p.r(U)p.r(C)p.r(C)p.r(G)p.r(C)p.r(G)p.r(U)p.r(A)p.r(C)p.r(G)p.r(T)p.r(T)}$$$RNA1{StrandType:ss}|RNA2{StrandType:as}$” it is 10.3%; for “RNA1{r(G)p.r(C)p.r(A)p.r(G)p.r(C)p.r(A)p.r(C)p.r(G)p.r(A)p.r(C)p.r(U)p.r(U)p.r(C)p.r(U)p.r(U)p.r(C)p.r(A)p.r(A)p.r(G)p.r(T)p.r(T)}|RNA2{d(C)p.d(U)p.d(U)p.d(G)p.d(A)p.d(A)p.d(G)p.d(A)p.d(A)p.d(G)p.d(U)p.d(C)p.d(G)p.d(U)p.d(G)p.d(C)p.d(U)p.d(G)p.d(C)p.r(T)p.r(T)}$$$RNA1{StrandType:ss}|RNA2{StrandType:as}$” it is 0%.
